The nature of the series: in vivo. As to conditions: rat.

Each structure is given as a SMILES string.

One may read the bioavailability as dose-corrected exposure relative to a reference, in per cent. Lower therefore signals poor availability.

As to `Cc1c(NS(C)(=O)=O)cccc1N(Cc1ccccc1)Cc1ccc(Oc2cccc(OCCCC(=O)NCCCC(=O)O)c2)cc1`, the bioavailability was determined as 12%.
